Data: US20140187625A1, “RODENTICIDAL COMPOUND, COMPOSITION INCLUDING SAME AND USE FOR COMBATING RODENT PESTS” (priority 2011, published 2014)

Biological target: T1, activity with respect to vitamin K (vitamin K epoxide substrate), microsomal liver fractions from sensitive rats (Rattus norvegicus, UniProt Q6TEK4)
T1 construct: with 0.5 to 1 mg of microsomal liver fractions from sensitive rats; from tissue; host or cells: rat liver microsomes (sensitive rats)
T1 sequence (Q6TEK4 1-161): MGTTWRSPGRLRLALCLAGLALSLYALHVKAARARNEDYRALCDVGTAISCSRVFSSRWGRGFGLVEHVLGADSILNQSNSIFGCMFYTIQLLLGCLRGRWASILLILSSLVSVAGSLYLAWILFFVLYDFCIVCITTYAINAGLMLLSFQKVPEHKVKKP
Assay: Inhibition of vitamin K epoxide reduction (activity with respect to vitamin K) in rat liver microsomes, IC50
Assay type: biochemical
Settings: not given
Description: The operating protocol is the following. Incubation is carried out in a 200 mM Hepes buffer (pH 7.4) containing 150 mM KCl in the presence of a reducing agent, dithiothreitol (1 mM): • with 0.5 to 1 mg of microsomal liver fractions from sensitive rats, and the reaction substrate, • with […] of vitamin K epoxide in a final volume of 1 ml.
The mixture is incubated for 30 minutes at 37° C. and the reaction is stopped by addition of 4 ml of a mixture of isopropanol/hexane (1:1).
The reaction mixture is then centrifuged for 10 minutes at 3,000 revolutions per minute.
The organic phase is collected and then evaporated to dryness under nitrogen.
The dry residue is immediately taken up in 200 μl of isopropanol.
The vitamin K is then analyzed. The products are separated by reverse chromatography on a C8 column using a mobile phase composed of methanol and acetic acid under isocratic conditions (1 ml/min) at 45° C. Detection of the product is carried out by MS/MS with an APCI source in positive mode.
The identification criteria for vitamin K are the retention time and the production of fragment 187 from the initial ion 451.
The IC50 values are evaluated by non-linear to linear regression from the equation of non-competitive inhibition:
v=(vmax/(l+(I/Ki)))*(S/(Km+S))
where v represents the initial rate, I the concentration of anticoagulant, Km the Michaelis-Menten constant, S the concentration of substrate (mM), Vmax the maximum rate of reaction and Ki the inhibition constant.

CCCCCCCCCCc1c(O)c2ccccc2oc1=O [III] and CCCCCCCCCCCCc1c(O)c2ccccc2oc1=O [IV] are within 1.5-fold of each other in IC50: 60 nM for the first, 50 nM for the second.

Compared with CCCCCCCCc1c(O)c2ccccc2oc1=O [II], CCCCCCc1c(O)c2ccccc2oc1=O [VIII, reference compound] is higher in IC50: 150 nM for the first, > 200 nM for the second. The first is the more potent here.

First: CCCCCCCCCCCCCCCCCCc1c(O)c2ccccc2oc1=O [VII]
Second: CCCCCCCCCCCCCCCCc1c(O)c2ccccc2oc1=O [VI]
The IC50 of the first is 1.5-fold higher: 60 nM for the first, 40 nM for the second. The second is the more potent here.

Compound CCCCCCCCCCCCCCc1c(O)c2ccccc2oc1=O [V] has an IC50 of 40 nM.

Same assay, conditions: microsomal liver fractions from sensitive rats, vitamin K epoxide substrate, 30 minutes at 37° C., pH 7.4, 1 mM dithiothreitol; read-out: IC50

With CCCCCCCCCCCCCCCCCCCCc1c(O)c2ccccc2oc1=O [IX, reference compound] the IC50 was > 500 nM.
